In ChEMBL document CHEMBL2062445, “Synthesis and nicotinic receptor activity of chemical space analogues of N-(3R)-1-azabicyclo[2.2.2]oct-3-yl-4-chlorobenzamide (PNU-282,987) and 1,4-diazabicyclo[3.2.2]nonane-4-carboxylic acid 4-bromophenyl ester (SSR180711)” (J Med Chem, 2012):
The source made the active and inactive calls. The calls are words filed in the database; no cut-off is given here.

Columns and labels:
[1] = molecular target: T1, Neuronal acetylcholine receptor subunit alpha-7 (Homo sapiens, UniProt P36544); test: Antagonist activity at human alpha7 nAChR expressed in Xenopus oocyte assessed as inhibition of ACh-induced current at 10 uM after 30 secs by electrophysiological assay; type: functional
[2] = molecular target: T1, Neuronal acetylcholine receptor subunit alpha-7; test: Agonist activity at human alpha7 nAChR expressed in Xenopus oocyte assessed as stimulation of ACh-induced current at 10 uM after 30 secs by electrophysiological assay; type: functional
[3] = molecular target: T2, Neuronal acetylcholine receptor; alpha3/beta2 (Homo sapiens) (UniProt P17787+P32297); test: Positive allosteric modulation at human recombinant alpha3beta 2 nAChR expressed in Xenopus oocyte assessed as stimulation of ACh-induced current at 10 uM after 30 secs by electrophysiological assay
[4] = molecular target: T2, Neuronal acetylcholine receptor; alpha3/beta2 (Homo sapiens); test: Negative allosteric modulation at human recombinant alpha3beta 2 nAChR expressed in Xenopus oocyte assessed as inhibition of ACh-induced current at 100 uM after 30 secs by electrophysiological assay
[5] = molecular target: T1, Neuronal acetylcholine receptor subunit alpha-7; test: Antagonist activity at human alpha7 nAChR expressed in Xenopus oocyte assessed as inhibition of ACh-induced current after 30 secs by electrophysiological assay; type: functional
[6] = molecular target: T1, Neuronal acetylcholine receptor subunit alpha-7; test: Partial agonist activity at human alpha7 nAChR expressed in Xenopus oocyte assessed as stimulation of ACh-induced current after 30 secs by electrophysiological assay; type: functional
[7] = molecular target: T2, Neuronal acetylcholine receptor; alpha3/beta2 (Homo sapiens); test: Positive allosteric modulation at human recombinant alpha3beta 2 nAChR expressed in Xenopus oocyte assessed as inhibition of ACh-induced current at 100 uM after 30 secs by electrophysiological assay

T1 sequence (P36544 whole entry): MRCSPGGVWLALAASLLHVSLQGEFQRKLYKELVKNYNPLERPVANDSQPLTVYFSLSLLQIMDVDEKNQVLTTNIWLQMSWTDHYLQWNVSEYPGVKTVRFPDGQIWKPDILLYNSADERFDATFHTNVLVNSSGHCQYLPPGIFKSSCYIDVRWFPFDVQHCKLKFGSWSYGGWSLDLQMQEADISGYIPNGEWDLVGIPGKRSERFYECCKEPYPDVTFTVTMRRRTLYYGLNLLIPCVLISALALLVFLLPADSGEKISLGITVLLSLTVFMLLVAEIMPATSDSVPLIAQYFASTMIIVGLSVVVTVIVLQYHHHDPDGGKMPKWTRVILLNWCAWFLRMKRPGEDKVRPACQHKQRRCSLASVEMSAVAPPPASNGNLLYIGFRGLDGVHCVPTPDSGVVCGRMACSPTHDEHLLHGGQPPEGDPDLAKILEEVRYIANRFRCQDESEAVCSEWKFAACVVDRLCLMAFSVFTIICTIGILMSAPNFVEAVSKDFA

Row | Structure (SMILES) | inhibition [1] [%] | Activity [2] | further results
1 | O=C(NCC1=CC2CCN1CC2)Oc1ccc(Br)cc1 | 100 | inactive | –
2 | O=C(NC[C@H]1CCCN1C1CCCCC1)c1ccc2ncsc2c1 | 71 | inactive | –
3 | O=C(c1ccccc1)N1CCCN2CCC[C@@H]2C1 | 55 | inactive | –
4 | O=C(NCC12CCCN1CCC2)c1ccc2c(c1)OCCO2 | 33 | – | –
5 | CC(C)N1CCN(C(=O)Oc2ccc(Br)cc2)CC1 | 82 | – | –
6 | CN1CC2CCC1C(CNC(=O)c1ccc(Br)cc1)C2 (racemic; form 1) | 71 | – | –
7 | C[C@H]1CN2CCCC[C@@H]2CN1C(=O)c1ccc2c(c1)OCCO2 | 75 | – | –
8 | CC(C)N1CCCCN(C(=O)C2COc3ccccc3O2)CC1 (centres undefined) | 37 | – | –
9 | CN1CC2CCC1C(CNC(=O)c1ccc3c(c1)OCCO3)C2 (racemic; form 1) | 81 | – | –
10 | O=C(NCC12CCCN1CCC2)c1ccc(Cl)cc1 | 32 | – | Activity [3]: Active; Activity [4]: Active
11 | CC1CCCC1N1CC[C@H](NC(=O)c2ccc3ncsc3c2)C1 (some centres undefined) | 20 | – | IC50 [5]: 5 µM
12 | C[C@H]1CN2CCCC[C@@H]2CN1C(=O)c1ccc2ncsc2c1 (racemic) | 61 | – | –
13 | CCC#CCN1CCC[C@H]1CNC(=O)c1ccc2ncsc2c1 | 88 | inactive | IC50 [5]: 45 µM
14 | O=C(NCC1CC2CCN1CC2)Oc1ccc(Br)cc1 (racemic) | 80 | – | –
15 | CN1CC2CCC1C(CNC(=O)c1ccc(Cl)cc1)C2 (racemic; form 1) | 60 | – | –
16 | O=C(Oc1ccc(Br)cc1)N1CCCN2CCC[C@@H]2C1 | 36 | inactive | –
17 | O=C(NCC1=CC2CCN1CC2)c1ccccc1 | 35 | inactive | –
18 | CC1CCCC1N1CC[C@H](NC(=O)c2ccc(Cl)cc2)C1 (some centres undefined) | 33 | – | –
19 | O=C(N[C@H]1CCN(Cc2ccccc2)C1)c1ccc2ncsc2c1 | 94 | inactive | –
20 | CCC#CCN1CCC[C@H]1COC(=O)c1ccc2ncsc2c1 | 60 | inactive | –
21 | CCC#CCN1CCC[C@@H]1CNC(=O)Oc1ccc(Br)cc1 | 72 | – | –

Row | Structure (SMILES) | inhibition [1] [%] | Activity [2] | further results
22 | CN(C)CCNC(=O)c1ccc2ncsc2c1 | 94 | – | –
23 | CC1CCCC1N1CCC(NC(=O)c2ccc3ncsc3c2)CC1 (centres undefined) | 65 | inactive | –
24 | CC(C)N1CCCCN(C(=O)c2ccc(Cl)cc2)CC1 | 35 | – | –
25 | CN1CC2CCC1C(CNC(=O)c1ccccc1)C2 (racemic; form 1) | 68 | – | –
26 | O=C(NCC1=CC2CCN1CC2)c1ccc(Cl)cc1 | 50 | inactive | –
27 | CN1CC2CCC1C(CNC(=O)c1ccc(Br)cc1)C2 (racemic; form 2) | 66 | inactive | –
28 | CC(C)N1CCCCN(C(=O)c2ccc3ncsc3c2)CC1 | 40 | – | –
29 | O=C(Oc1ccc(Br)cc1)N1CCN2CCC1CC2 | – | – | Activity [6]: Active
30 | O=C(N[C@H]1CCN(C2CCCCC2)C1)c1ccc2ncsc2c1 | 56 | inactive | –
31 | CCN1CC[C@H](NC(=O)c2ccc3ncsc3c2)C1 | 139 | inactive | –
32 | CN1CC2CCC1C(CNC(=O)c1ccccc1)C2 (racemic; form 2) | 54 | inactive | –
33 | O=C(NCC1CC2CCN1CC2)c1ccccc1 (racemic) | 53 | – | –
34 | O=C(Oc1ccc(Br)cc1)N1CCCN2CCC[C@H]2C1 | 62 | – | –
35 | O=C(NCC12CCCN1CCC2)c1ccccc1 | 26 | – | Activity [3]: Active; Activity [4]: Active
36 | CC(C)N1CCN(C(=O)c2ccc3ncsc3c2)CC1 | 85 | – | –
37 | O=C(NCC1=CC2CCN1CC2)c1ccc(Br)cc1 | 30 | inactive | –
38 | O=C(c1ccc(Cl)cc1)N1CCCN2CCC[C@H]2C1 | 57 | – | –
39 | O=C(NCC1CC2CCN1CC2)c1ccc(F)cc1 (racemic) | 84 | – | Activity [3]: Active; Activity [7]: Active
40 | CN(C)CCNC(=O)c1ccc2c(c1)OCCO2 | 87 | – | –
41 | O=C(N[C@@H]1CCN(Cc2ccccc2)C1)c1ccc2ncsc2c1 | 59 | – | –
